The first data set can be described thus: Particle size and polydispersity index (Zetasizer Nano ZS). Type of data set: physicochemical. The following applies: Table 1, marked *: lipid:DSPC:Chol:PEG-DMG 50:10:38.5:1.5. The text has this: Nanoparticle compositions may be characterized by a variety of methods. For example, microscopy (e.g., transmission electron microscopy or scanning electron microscopy) may be used to examine the morphology and size distribution of a nanoparticle composition. Dynamic light scattering or potentiometry (e.g., potentiometric titrations) may be used to measure zeta potentials. Dynamic light scattering may also be utilized to determine particle sizes. Instruments such as the Zetasizer Nano ZS (Malvern Instruments Ltd, Malvern, Worcestershire, UK) may also be used to measure multiple characteristics of a nanoparticle composition, such as particle size, polydispersity index, and zeta potential.
A Zetasizer Nano ZS (Malvern Instruments Ltd, Malvern, Worcestershire, UK) can be used to determine the particle size, the polydispersity index (PDI) and the zeta potential of the nanoparticle compositions in 1×PBS in determining particle size and 15 mM PBS in determining zeta potential.
Consider `CCCCC/C=C\C/C=C\CCCCCCCCN(CCCCCCCC/C=C\C/C=C\CCCCC)CCN(CCCCCCCC/C=C\C/C=C\CCCCC)CCN1CCNCC1` [Compound 41, N^1,N^1,N^2-Tri((9Z,12Z)-octadeca-9,12-dien-1-yl)-N^2-(2-(piperazin-1-yl)ethyl)ethane-1,2-diamine], for which the “Size (nm)” value stood at 69.0 nm. Turning to `CCCCCCCC/C=C\CCCCCCCCN(CCCCCCCC/C=C\CCCCCCCC)CCN(CCCCCCCC/C=C\CCCCCCCC)CCN1CCNCC1` [Compound 40, N^1,N^1,N^2-Tri((Z)-octadec-9-en-1-yl)-N^2-(2-(piperazin-1-yl)ethyl)ethane-1,2-diamine], the PDI is 0.210. For `CCCCC/C=C\C/C=C\CCCCCCCCN(CCCCCCCC/C=C\C/C=C\CCCCC)CCN(CCCCCCCC/C=C\C/C=C\CCCCC)CCN1CCN(CCN(CCCCCCCCCCCC)CCCCCCCCCCCC)CC1` [Compound 34, N^1-(2-(4-(2-(Didodecylamino)ethyl)piperazin-1-yl)ethyl)-N^1,N^2,N^2-tri((9Z,12Z)-octadeca-9,12-dien-1-yl)ethane-1,2-diamine], the PDI is listed as 0.077.

The compound `CCCCCCCCCN(CCCCCCCCC)CCN(CCCCCCCCC)CCN1CCNCC1` [Compound 36, N^1,N^1,N^2-Trinonyl-N^2-(2-(piperazin-1-yl)ethyl)ethane-1,2-diamine] yielded a PDI of 0.110.

Staying with this data set, now noted: Table 1; DOPE 40:20:38.5:1.5, Luc mRNA.
`CCCCCCCCCCCCCCN(CCCCCCCCCCCCCC)CCN(CCCCCCCCCCCCCC)CCN1CCN(CCN(CCCCCCCCCCCCCC)CCCCCCCCCCCCCC)CC1` [Compound 32, N^1-(2-(4-(2-(Ditetradecylamino)ethyl)piperazin-1-yl)ethyl)-N^1,N^2,N^2 tritetradecylethane-1,2-diamine]: the PDI turned out to be 0.160. In turn, `CCCCCCCCCN(CCCCCCCCC)CCN(CCCCCCCCC)CCN1CCN(CCN(CCCCCCCCC)CCCCCCCCC)CC1` [Compound 18, N^1-(2-(4-(2-(Dinonylamino)ethyl)piperazin-1-yl)ethyl)-N^1,N^2,N^2-trinonylethane-1,2-diamine] had a PDI of 0.120.

Compound `CCCCCCCCCCCCCCN(CCCCCCCCCCCCCC)CCN(CCCCCCCCCCCCCC)CCN1CCN(CCN(CCCCCCCCC)CCCCCCCCC)CC1` [Compound 30, N^1-(2-(4-(2-(Dinonylamino)ethyl)piperazin-1-yl)ethyl)-N^1,N^2,N^2-tritetradecylethane-1,2-diamine] came in with a PDI of 0.110. Turning to `CCCCC/C=C\C/C=C\CCCCCCCCN(CCCCCCCC/C=C\C/C=C\CCCCC)CCN1CCN(CCN(CCCCCCCCCCCC)CCN(CCCCCCCCCCCC)CCCCCCCCCCCC)CC1` [Compound 29, N^1-(2-(4-(2-(Di((9Z,12Z)-octadeca-9,12-dien-1-yl)amino)ethyl)piperazin-1-yl)ethyl)-N^1,N^2,N^2-tridodecylethane-1,2-diamine], the PDI was 0.060.

Compound `CCCCCCCCCCCCCCN(CCCCCCCCCCCCCC)CCN(CCCCCCCCCCCCCC)CCN1CCN(CCN(CCCCCCCCCCCC)CCCCCC(=O)OCCCCC)CC1` [Compound 13, Pentyl 6-((2-(4-(2-((2-(ditetradecylamino)ethyl)(tetradecyl)amino)ethyl)piperazin-1-yl)ethyl)(dodecyl)amino)hexanoate] returned a PDI of 0.080. Same read-out and setting: the same measure for `CCCCCCCCCCCCN(CCCCCCCCCCCC)CCN1CCN(CCN(CCCCCC)CCN(CCCCCC)CCCCCC)CC1` [Compound 17, N^1-(2-(4-(2-(Didodecylamino)ethyl)piperazin-1-yl)ethyl)-N^1,N^2,N^2-trihexylethane-1,2-diamine]: 0.180; for `CCCCCCCCCCCCCCN(CCCCCCCCCCCCCC)CCN(CCCCCCCCCCCCCC)CCN1CCN(CCN(CCCCCCCCCCCC)CCCCCCCCCCCC)CC1` [Compound 31, N^1-(2-(4-(2-(Didodecylamino)ethyl)piperazin-1-yl)ethyl)-N^1,N^2,N^2 tritetradecylethane-1,2-diamine]: 0.130. The same measure, in the same setting: next, `CCCCCCCC/C=C\CCCCCCCCN(CCCCCCCC/C=C\CCCCCCCC)CCN1CCN(CCN(CCCCCCCCCCCC)CCN(CCCCCCCCCCCC)CCCCCCCCCCCC)CC1` [Compound 28, N^1-(2-(4-(2-(Di((Z)-octadec-9-en-1-yl)amino)ethyl)piperazin-1-yl)ethyl)-N^1,N^2,N^2-tridodecylethane-1,2-diamine]: 0.099; `CCCCCCCCCCCCN(CCCCCCCCCCCC)CCN1CCN(CCN(CCCCCCCCC)CCN(CCCCCCCCC)CCCCCCCCC)CC1` [Compound 19, N^1-(2-(4-(2-(Didodecylamino)ethyl)piperazin-1-yl)ethyl)-N^1,N^2,N^2-trinonylethane-1,2-diamine]: 0.100.

`CCCCCCCCCCCCN(CCCCCCCCCCCC)CCN(CCCCCCCCCCCC)CCN1CCN(C(=O)CN(CCCCCCCCCCCC)CCCCCCCCCCCC)CC1` [Compound 3, 2-(Didodecylamino)-1-(4-(2-((2-(didodecylamino)ethyl)(dodecyl)amino)ethyl)piperazin-1-yl)ethan-1-one] registered a PDI of 0.044.

Still in this data set, the particulars now being: Table 1; lipid:DOPE:Chol:PEG-DMG 40:20:38.5:1.5, Luc mRNA; MC3 standard formulation.
Turning to `CCCCCCCCCCCCCCN(CCCCCCCCCCCCCC)CCN(CCCCCCCCCCCCCC)CCN1CCN(CCN(CCCCCCCCC)CCCCCCCCC)CC1` [Compound 30, N^1-(2-(4-(2-(Dinonylamino)ethyl)piperazin-1-yl)ethyl)-N^1,N^2,N^2-tritetradecylethane-1,2-diamine], the “Size (nm)” value is reported as 95.0 nm.

Staying with this data set, now noted: Table 20-1.
Consider `CCCCCCCCCCCCN(CCO)CCN(CCCCCCCCCCCC)CCCCCC(=O)OCCCCC` [Compound 20-2, Pentyl 6-(dodecyl(2-(dodecyl(2-hydroxyethyl)amino)ethyl)amino)hexanoate], for which the PDI was 0.130. `CCCCCCCCCCCCCCN(CCO)CCN(CCCCCCCCCCCC)CCCCCCCCCCCC` [Compound 20-24, 2-((2-(Didodecylamino)ethyl)(tetradecyl)amino)ethan-1-ol] returned a PDI of 0.038.

As to `CCCCCCCCCCCCN(CCO)CCN(CCCCCCCC(=O)OCCCCCCCCC)CCCCCCCC(=O)OCCCCCCCCC` [Compound 20-10, Dinonyl 8,8′-((2-(dodecyl(2-hydroxyethyl)amino)ethyl)azanediyl)dioctanoate], the PDI came out at 0.130. On to `CCCCCCCCCCCCN(CCO)CCN(CCCCCCCCC)CCCCCCCCC` [Compound 20-18, 2-((2-(Dinonylamino)ethyl)(dodecyl)amino)ethan-1-ol], for which the PDI is recorded as 0.150. Compound `CCCCC/C=C\C/C=C\CCCCCCCCN(CCCCCCCC/C=C\C/C=C\CCCCC)CCN(CCO)CCCCCCCCCCCC` [Compound 20-13, 2-((2-(Di((9Z,12Z)-octadeca-9,12-dien-1-yl)amino)ethyl)(dodecyl)amino)ethan-1-ol] had a PDI of 0.057.

As to `CCCCC/C=C\CCCCCN(CCO)CCN(CCCCCCCCCCCC)CCCCCCCCCCCC` [Compound 20-23, (Z)-2-((2-(Didodecylamino)ethyl)(dodec-6-en-1-yl)amino)ethan-1-ol], the PDI came out at 0.080. Consider `CCCCCCCOC(=O)CCCCCN(CCO)CCN(CCCCCC(=O)OCCCCCCC)CCCCCC(=O)OCCCCCCC` [Compound 20-5, Diheptyl 6,6′-((2-((6-(heptyloxy)-6-oxohexyl)(2 hydroxyethyl)amino)ethyl)azanediyl)dihexanoate], for which the PDI amounted to 0.210. The same measure, in the same setting: the same measure for `CCCCCCCCCCCCN(CCO)CCN(CCCCCC(=O)OCCCCC)CCCCCC(=O)OCCCCC` [Compound 20-4, Dipentyl 6,6′-((2-(dodecyl(2-hydroxyethyl)amino)ethyl)azanediyl)dihexanoate]: 0.160; for `CCCCCCCCCCCCN(CCO)CCN(CCCCCCCCCCCC)CCCCCC(=O)OCCCCCCC` [Compound 20-7, Heptyl 6-(dodecyl(2-(dodecyl(2-hydroxyethyl)amino)ethyl)amino)hexanoate]: 0.170; for `CCCCCCCCCCCCN(CCCCCCCCCCCC)CCN(CCO)CCCCCCCC(=O)OC(CCCCCCCC)CCCCCCCC` [Compound 20-9, Heptadecan-9-yl 8-((2-(didodecylamino)ethyl)(2-hydroxyethyl)amino)octanoate]: 0.130. The same measure, in the same setting: the same measure for `CCCCCCCCCCCCN(CCCCCCCCCCCC)CCN(CCO)CCCCCC(=O)OCCCCC` [Compound 20-3, Pentyl 6-((2-(didodecylamino)ethyl)(2-hydroxyethyl)amino)hexanoate]: 0.110; for `CCCCCCCCCCCCN(CCCCCCCCCCCC)CCN(CCO)CCCCCCCCC` [Compound 20-17, 2-((2-(didodecylamino)ethyl)(nonyl)amino)ethan-1-ol]: 0.092.

As to `CCCCCCCCCN(CCCCCCCCC)CCN(CCO)CCCCCC(=O)OCCCCC` [Compound 20-6, Pentyl 6-((2-(dinonylamino)ethyl)(2-hydroxyethyl)amino)hexanoate], the PDI is listed as 0.220.

Still in this data set, the particulars now being: Table 20-1, row marked *: formulated with DOPE.
Turning to `CCCCCCCCCCCCN(CCCCCCCCCCCC)CCN(CCCCCCCCCCCC)CC(=O)O` [Compound 20-1, N-(2-(Didodecylamino)ethyl)-N-dodecylglycine], the PDI is given as 0.078.

Still in this data set, the particulars now being: formulated with hEPO mRNA.
In turn, `CCCCCCCCCCCCN(CCCCCCCCCCCC)CCN(CCCCCCCCCCCC)CCN1CCN(CCN(CCCCCCCCCCCC)CCCCCCCCCCCC(=O)OC)CC1` [Compound 15, Methyl 12-((2-(4-(2-((2-(didodecylamino)ethyl)(dodecyl)amino)ethyl)piperazin-1-yl)ethyl)(dodecyl)amino)dodecanoate] had a PDI of 0.120. Consider `CCCCCCCCCCCCN(CCCCCCCCCCCC)CCN(CCCCCCCCCCCC)CCN1CCN(CCN(CCCCCCCC)CCCCCCCC)CC1` [Compound 22, N^1-(2-(4-(2-(Dioctylamino)ethyl)piperazin-1-yl)ethyl)-N^1,N^2,N^2-tridodecylethane-1,2-diamine], for which the PDI was determined as 0.130.

(Values after patent US12396961B2, “Compounds and compositions for intracellular delivery of agents” (ModernaTX, Inc., priority 2015, dated 2025).)
